As a reminder, the Ki is a measure of affinity in units of concentration, obtained from inhibition or displacement.

This note sets out measurements from patent US20110207770A1, “PHARMACEUTICAL PRODUCT COMPRISING A MUSCARINIC RECEPTOR ANTAGONIST AND A SECOND ACTIVE INGREDIENT” (ASTRAZENECA AB, priority 2008, published 2011).

For series [1], the target named is T1, Recombinant human M3 receptor (Homo sapiens, UniProt P20309).
T1 construct: expressed in transfected cells; host or cells: CHO-K1 cells (membranes prepared from them)
T1 sequence (P20309 whole entry): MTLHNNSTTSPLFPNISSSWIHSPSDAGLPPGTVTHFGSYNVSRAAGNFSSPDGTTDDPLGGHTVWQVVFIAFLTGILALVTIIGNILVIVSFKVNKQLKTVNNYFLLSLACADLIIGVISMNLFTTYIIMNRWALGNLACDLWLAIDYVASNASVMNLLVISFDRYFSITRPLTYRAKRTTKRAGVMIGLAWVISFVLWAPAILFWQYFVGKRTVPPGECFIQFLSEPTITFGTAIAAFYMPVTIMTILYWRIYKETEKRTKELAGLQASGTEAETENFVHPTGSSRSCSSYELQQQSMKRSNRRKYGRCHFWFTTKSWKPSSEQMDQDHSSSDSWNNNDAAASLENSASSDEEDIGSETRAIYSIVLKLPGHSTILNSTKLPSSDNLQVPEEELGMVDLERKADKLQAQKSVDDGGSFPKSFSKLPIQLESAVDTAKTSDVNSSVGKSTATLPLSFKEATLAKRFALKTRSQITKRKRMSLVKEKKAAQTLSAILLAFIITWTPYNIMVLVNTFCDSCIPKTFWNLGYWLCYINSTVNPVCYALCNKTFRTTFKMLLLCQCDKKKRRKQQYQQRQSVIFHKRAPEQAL
Briefly: Muscarinic Receptor Radioligand Binding Assay ([3H]-NMS, SPA). The procedure: The inhibitory effects of compounds of the muscarinic antagonists were determined by a Muscarinic Receptor Radioligand Binding Assay.
Recombinant human M3 receptor was expressed in CHO-K1 cells. Cell membranes were prepared and binding of [3H]-N-methyl scopolamine ([3H]-NMS) and compounds was assessed by a scintillation proximity assay (SPA). The incubation time was 16 hours at ambient temperature in the presence of 1% (v/v) DMSO. The assay was performed in white 96 well clear-bottomed NBS plates (Corning). Prior to the assay, the CHO cell membranes containing M3 receptor were coated onto SPA WGA (Wheat germ agglutinin) beads (GE Healthcare). Non specific binding was determined in the presence of 1 μM Atropine.
Radioactivity was measured on a Microbeta scintillation counter (PerkinElmer) using a 3H protocol with a 2 minutes per well read time. […] Concentration dependent inhibition of [3H]-NMS binding by compounds was expressed as pIC50.

The nature of series [2]: Dynamic vapour sorption (DVS) analysis of crystalline form. The series is classed as physicochemical. The following applies: at 80% RH, 25° C., crystalline material. The procedure:
Dynamic vapour sorption (DVS) analysis was performed on a Surface Measurement systems (SMS) DVS-Intrinsic moisture sorption analyser. The instrument was controlled by SMS Analysis Suite software (DVS-Intrinsic Control v1.0.0.30). Analysis of the data was performed using Microsoft Excel 2007 together DVS Standard Analysis Suite (v6.0.0.7). Sample temperature was maintained at 25° C. and the sample humidity was obtained by mixing streams of wet and dry nitrogen at a total flow rate of 200 mlmin^−1. The relative humidity was measured using a calibrated Rotronic probe (dynamic range 1-100% Relative Humidity (RH)) located close to the sample. The weight change of the sample as a function of % RH was constantly monitored by the microbalance (accuracy ±0.005 mg). Typically a PXRD would be run prior to analysis. 20 mg of sample was then placed in a tared stainless steel mesh basket under ambient conditions. The sample was loaded and unloaded at 40% RH and 25° C. (typical room conditions) and the sample subjected to a graduated DVS regime over 2 cycles using the parameters shown in Table 1.

Series [3] in a line: Gravimetric Vapour Sorption (GVS) of crystalline forms. The following applies: at 80% RH, crystalline material. In kind it is physicochemical. The procedure: Gravimetric Vapour Sorption (GVS) profiles were measured using a Surface Measurements Systems Dynamic Vapour Sorption DVS-1 or a DVS Advantage instrument. The solid sample ca. 1-5 mg was placed into a glass vessel and the weight of the sample was recorded during a dual cycle step method (40 to 90 to 0 to 90 to 0% relative humidity (RH), in steps of 10% RH).

Where [4] appears, read: CHO-K1 cell membranes, [3H]-NMS, 16 hours at ambient temperature, 1% DMSO, read-out: Ki in the M3 binding assay.

Each structure is given as a SMILES string. Where two headings read alike, the source gives them in different places.

Consider `O[C@](c1ccccc1)(c1cc(C[N+]23CCC(CC2)[C@@H](Oc2cccc(F)c2)C3)on1)C1CCCCC1` [Example 3, (R)-1-[3-((R)-Cyclohexyl-hydroxy-phenyl-methyl)-isoxazol-5-ylmethyl]-3-(3-fluoro-phenoxy)-1-azonia-bicyclo[2.2.2]octane chloride], for which, in series [1], the Ki stood at 0.66 nM.

For the compound `O=S(=O)([O-])c1ccccc1.O[C@](c1ccccc1)(c1cc(C[N+]23CCC(CC2)[C@@H](Oc2ccc(F)cc2)C3)on1)C1CCCCC1` [Example 2, (R)-1-[3-((R)-Cyclohexyl-hydroxy-phenyl-methyl)-isoxazol-5-ylmethyl]-3-(4-fluoro-phenoxy)-1-azonia-bicyclo[2.2.2]octane benzenesulfonate], the DVS weight increase in series [2] is 0.2 % w/w.

For the compound `OC(c1ccccc1)(c1ccccc1)c1cc(C[N+]23CCC(CC2)[C@@H](Sc2cccc(F)c2)C3)on1` [Example 6, (R)-3-(3-Fluoro-phenylsulfanyl)-1-[3-(hydroxy-diphenyl-methyl)-isoxazol-5-ylmethyl]-1-azonia-bicyclo[2.2.2]octane bromide], in series [1] (setting [4]), the Ki stood at 0.15 nM.

Turning to `O[C@](c1ccccc1)(c1nnc(C[N+]23CCC(CC2)[C@@H](Oc2ccc(F)cc2)C3)o1)C1CCCCC1` [Example 5, (R)-1-[5-((R)-Cyclohexyl-hydroxy-phenyl-methyl)-[1,3,4]oxadiazol-2-ylmethyl]-3-(4-fluoro-phenoxy)-1-azonia-bicyclo[2.2.2]octane bromide], the inhibitory constant (Ki) in series [1] (setting [4]) came out at 0.7 nM.

Compound `O[C@](c1ccccc1)(c1cc(C[N+]23CCC(CC2)[C@@H](Oc2cccc(F)c2)C3)on1)C1CCCCC1` [Example 8, (R)-1-[3-((R)-Cyclohexyl-hydroxy-phenyl-methyl)-isoxazol-5-ylmethyl]-3-(3-fluoro-phenoxy)-1-azonia-bicyclo[2.2.2]octane 2-hydroxy-ethanesulfonate] gave a GVS mass increase in series [3] of 0.15%.

Consider `O[C@](c1ccccc1)(c1cc(C[N+]23CCC(CC2)[C@@H](Oc2ccc(F)cc2)C3)on1)C1CCCCC1` [Example 1, (R)-1-[3-((R)-Cyclohexyl-hydroxy-phenyl-methyl)-isoxazol-5-ylmethyl]-3-(4-fluoro-phenoxy)-1-azonia-bicyclo[2.2.2]octane chloride], for which, in series [1] (setting [4]), the Ki stood at 0.8 nM.

For the compound `Cc1ccc(O[C@H]2C[N+]3(Cc4cc(C(O)(c5ccccc5)c5ccccc5)no4)CCC2CC3)cc1F` [Example 7, (R)-3-(3-Fluoro-4-methyl-phenoxy)-1-[3-(hydroxy-diphenyl-methyl)-isoxazol-5-ylmethyl]-1-azonia-bicyclo[2.2.2]octane bromide], the Ki in series [1] (setting [4]) amounted to 0.4 nM.
